For 31 compounds, EC50 results are on record in patent publication US20250221966A1, “RXFP1 AGONISTS” (BRISTOL-MYERS SQUIBB COMPANY, priority 2021, published 2025).

The target of the first test is T1, human RXFP1 (Homo sapiens, UniProt Q9HBX9).
T1 construct: expressed in transfected cells
T1 sequence (Q9HBX9 1-757): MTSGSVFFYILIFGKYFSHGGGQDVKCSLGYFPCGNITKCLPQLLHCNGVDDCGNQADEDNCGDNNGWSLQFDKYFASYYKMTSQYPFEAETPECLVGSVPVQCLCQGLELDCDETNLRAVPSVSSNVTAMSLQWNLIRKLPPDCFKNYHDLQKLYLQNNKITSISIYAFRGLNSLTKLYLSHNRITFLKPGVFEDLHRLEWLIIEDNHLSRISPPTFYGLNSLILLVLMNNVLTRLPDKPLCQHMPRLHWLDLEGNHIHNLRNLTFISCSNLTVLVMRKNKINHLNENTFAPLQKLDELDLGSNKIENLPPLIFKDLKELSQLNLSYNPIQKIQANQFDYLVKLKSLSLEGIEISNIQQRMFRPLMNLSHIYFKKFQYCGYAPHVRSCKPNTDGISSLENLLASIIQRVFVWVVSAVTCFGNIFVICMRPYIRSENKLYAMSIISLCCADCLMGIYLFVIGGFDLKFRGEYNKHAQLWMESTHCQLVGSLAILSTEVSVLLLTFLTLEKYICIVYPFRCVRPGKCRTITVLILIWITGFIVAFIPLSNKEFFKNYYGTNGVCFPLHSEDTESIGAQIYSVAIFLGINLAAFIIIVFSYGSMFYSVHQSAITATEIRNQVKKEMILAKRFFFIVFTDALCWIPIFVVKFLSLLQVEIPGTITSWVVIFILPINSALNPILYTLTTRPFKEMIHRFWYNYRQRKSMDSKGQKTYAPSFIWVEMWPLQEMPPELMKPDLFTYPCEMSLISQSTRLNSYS
The test is described as follows: RXFP1 cAMP assay (hRXFP1 HEK293 cAMP assay, HTRF). The class given is cell-based. The settings on record: HEK293 cells stably expressing human RXFP1, 30 min at room temperature, read-out: cAMP hRXFP1 HEK293 Assay EC50. In a few lines:
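hRXFP1-HEK293 stable line; HBSS + Ca/Mg, 20 mM HEPES, 0.05% BSA, 0.5 mM IBMX; cpd 0.010 nM–50 μM, 2% DMSO; 30 min RT; lysis, HTRF cAMP detection; 4-PL fit.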
(Changes in cAMP serve as a functional read-out for many G protein-coupled receptors.)
In the case of `COc1ccc(C2CCOC2)cc1C(=O)N[C@H]1[C@@H](C(=O)Nc2ccc(F)c(C(F)(F)F)c2)[C@H]2CC[C@@H]1/C2=C\C(F)(F)F` (stereo partly drawn) [Example 360, (1R,2S,3R,4R,Z)—N-(4-fluoro-3-(trifluoromethyl)phenyl)-3-(2-methoxy-5-(tetrahydrofuran-3-yl)benzamido)-7-(2,2,2-trifluoroethylidene)bicyclo[2.2.1]heptane-2-carboxamide], the EC50 worked out at 1940 nM.

In the case of `COc1ccc(-c2ccc(C(=O)O)cc2F)cc1C(=O)N[C@H]1[C@@H](C(=O)Nc2ccc(F)c(C(F)(F)F)c2)[C@H]2CC[C@@H]1/C2=C\C1CC(F)(F)C1` [compound 919], the EC50 was found to be 3.6 nM.

Regarding `COc1ccc(-c2cc(C3=NOC(CO)C3)ccc2F)cc1C(=O)N[C@H]1[C@@H](C(=O)Nc2ccc(F)c(C(F)(F)F)c2)[C@H]2CC[C@@H]1/C2=C\C1CC1` (stereo partly shown) [compound 906], the EC50 worked out at 6.8 nM.

For the compound `COc1ccc(C2=NOC3CC(CF)CC23)cc1C(=O)N[C@H]1[C@@H](C(=O)Nc2ccc(F)c(C(F)(F)F)c2)[C@H]2CC[C@@H]1/C2=C\C1CC1` (stereo partly shown) [compound 866], the EC50 is 4.8 nM.

As to `COc1ccc(C2=NOC3CC(C(=O)O)CC23)cc1C(=O)N[C@H]1[C@@H](C(=O)Nc2ccc(F)c(C(F)(F)F)c2)[C@H]2CC[C@@H]1/C2=C\C1CC1` (stereo partly shown) [compound 851], the EC50 stood at 2.8 nM.

On to `COc1cc(F)c(F)cc1C(=O)N[C@@H]1C2CCC(/C2=C/c2ccccn2)[C@@H]1C(=O)Nc1ccc(F)c(C(F)(F)F)c1` (stereo partly shown) [compound 137], for which the EC50 is 480 nM.

With `COc1ccc(-c2cccc3c2CN(C(=O)C2CCC2)C3)cc1C(=O)N[C@@H]1C2CCC(/C2=C/C2CC2)[C@@H]1C(=O)Nc1ccc(F)c(C(F)(F)F)c1` (stereo partly shown) [compound 872], the half-maximal effective concentration (EC50) was determined as 8 nM.

Take `COc1ccc(C2=NOC3COCC23)cc1C(=O)N[C@H]1[C@@H](C(=O)NCc2ccnn2C)[C@H]2CC[C@@H]1/C2=C\C1CC1` (stereo partly shown) [compound 707]: the EC50 was found to be 1330 nM.

For the compound `O=C(N[C@H]1[C@@H](C(=O)Nc2ccc(F)c(C(F)(F)F)c2)[C@H]2CC[C@@H]1/C2=C\C1CC1)c1cc(C2=NOC3CC(CO)CC23)ccc1F` (single isomer, unassigned) [compound 723], the EC50 worked out at 4980 nM.

As to `O=C(N[C@H]1[C@@H](C(=O)Nc2ccc(F)c(C(F)(F)F)c2)[C@H]2CC[C@@H]1/C2=C\C1CC1)c1cc(C2=NOC3CC(CO)CC23)ccc1F` (single isomer, unassigned) [compound 473], the EC50 came to 4.9 nM.

For the compound `COc1ccc(-c2cc(C(=O)O)ccc2F)cc1C(=O)N[C@@H]1C2CCC(/C2=C/c2cn(Cc3ccccc3)nn2)[C@@H]1C(=O)Nc1ccc(F)c(C(F)(F)F)c1` (stereo partly shown) [compound 326], the EC50 stood at 2270 nM.

For `COc1ccc(C2=NOC3COCC23)cc1C(=O)N[C@H]1[C@@H](C(=O)NC23CC(C#N)(C2)C3)[C@H]2CC[C@@H]1/C2=C\C1CC1` (stereo partly shown) [compound 777], the EC50 was 13.9 nM.

On to `COc1ccc(-c2ccnc(N3CCOCC3)c2F)cc1C(=O)N[C@H]1[C@@H](C(=O)Nc2ccc(F)c(C(F)(F)F)c2)[C@H]2CC[C@@H]1C2=C(C)C` [compound 85], for which the EC50 came to 130 nM.

With `COc1ccc(C2=NOC3CC(O)CC23)cc1C(=O)N[C@H]1[C@@H](C(=O)Nc2ccc(F)c(C(F)(F)F)c2)[C@H]2CC[C@@H]1/C2=C\C1CCC1` (mixture of isomers) [Example 406, (1R,2S,3R,4R,Z)-7-(cyclobutylmethylene)-N-(4-fluoro-3-(trifluoromethyl)phenyl)-3-(5-(5-hydroxy-3a,5,6,6a-tetrahydro-4H-cyclopenta[d]isoxazol-3-yl)-2-methoxybenzamido)bicyclo[2.2.1]heptane-2-carboxamide], the EC50 amounted to 48 nM.

Take `COc1ccc(C2=NOC(C(C)O)C2)cc1C(=O)N[C@H]1[C@@H](C(=O)Nc2ccc(F)c(C(F)(F)F)c2)[C@H]2CC[C@@H]1/C2=C\C1CC1` (single isomer, unassigned) [compound 509]: the concentration for a half-maximal effect (EC50) worked out at 15.2 nM.

In the case of `COc1ccc(-c2cc(C3=NOC4CC(CO)CC34)ccc2F)cc1C(=O)N[C@H]1[C@@H](C(=O)Nc2ccc(F)c(C(F)(F)F)c2)[C@H]2CC[C@@H]1/C2=C\C1CC1` (stereo partly shown) [compound 954], the EC50 turned out to be 5.3 nM.

In the case of `COc1cc(C(=O)N[C@H]2[C@@H](C(=O)Nc3ccc(F)c(C(F)(F)F)c3)[C@H]3CC[C@@H]2/C3=C\C2CC2)cc(C2=NOC3COCC23)c1` (single isomer, unassigned) [compound 696], the EC50 came out at 966 nM.

With `COc1ccc(-c2cc(C(O)C(=O)O)ccc2F)cc1C(=O)N[C@@H]1C2CCC(/C2=C/C2CC2)[C@@H]1C(=O)Nc1ccc(F)c(C(F)(F)F)c1` (stereo partly shown) [compound 181], the EC50 is 6 nM.

Take `COc1ccc(C2=NOC3COCC23)cc1C(=O)N[C@H]1[C@@H](C(=O)Nc2ccc(F)c(C(F)(F)F)c2)[C@H]2CC[C@@H]1/C2=C\c1cnoc1` (stereo partly shown) [compound 802]: the EC50 was 3 nM.

`O=C(NC1CCC1)O[C@@H](c1ccc(F)c(-c2ccc(OCCO)c(C(=O)N[C@@H]3C4CCC(/C4=C/C(F)(F)F)[C@@H]3C(=O)Nc3ccc(F)c(C(F)(F)F)c3)c2)c1)C(F)(F)F` (stereo partly shown) [compound 319]: the EC50 stood at 13 nM.

For the compound `COc1cc(F)c(F)cc1C(=O)N[C@@H]1C2CCC(/C2=C/c2cccc(OC(F)F)c2)[C@@H]1C(=O)Nc1ccc(F)c(C(F)(F)F)c1` (stereo partly shown) [compound 27], the EC50 came out at 380 nM.

Regarding `CCC(CC)NC(=O)[C@@H]1[C@H](NC(=O)c2cc(C3=NOC4COCC34)ccc2OC)[C@@H]2CC[C@H]1/C2=C/C1CC1` (stereo partly shown) [compound 611], the EC50 was determined as 133 nM.

Take `COc1c(F)cc(C2=NOC(CO)C2)cc1C(=O)N[C@H]1[C@@H](C(=O)Nc2ccc(F)c(C(F)(F)F)c2)[C@H]2CC[C@@H]1/C2=C\CC(O)C(F)(F)F` (stereo partly shown) [compound 835]: the EC50 worked out at 3.9 nM.

Turning to `COc1ccc(-c2cc(C(OC(=O)Nc3ccc(Cl)cc3)C(F)(F)F)ccc2F)cc1C(=O)N[C@@H]1C2CCC(/C2=C/C2CC2)[C@@H]1C(=O)Nc1ccc(F)c(C(F)(F)F)c1` (stereo partly shown) [compound 227], the EC50 was found to be 3 nM.

As to `COc1ccc(-c2cc(CC(=O)O)ccc2F)cc1C(=O)N[C@@H]1C2CCC(/C2=C/C2CC2)[C@@H]1C(=O)Nc1ccc(F)c(C(F)(F)F)c1` (stereo partly shown) [compound 189], the concentration giving a half-maximal response (EC50) came out at 10 nM.

For the compound `COc1ccc(C2=NOC3CCCC23)cc1C(=O)N[C@H]1[C@@H](C(=O)Nc2ccc(F)c(C(F)(F)F)c2)[C@H]2CC[C@@H]1/C2=C\C1CC1` (single isomer, unassigned) [compound 662], the EC50 is 360 nM.

Regarding `COC(=O)N1Cc2cccc(-c3ccc(OC)c(C(=O)N[C@@H]4C5CCC(/C5=C/C5CC5)[C@@H]4C(=O)Nc4ccc(F)c(C(F)(F)F)c4)c3)c2C1` (stereo partly shown) [compound 881], the EC50 is 3.1 nM.

For `COc1ccc(C2=NOC(C)(CO)C2)cc1C(=O)N[C@H]1[C@@H](C(=O)Nc2ccc(F)c(C(F)(F)F)c2)[C@H]2CC[C@@H]1C2=CC1CC1` (single isomer, unassigned) [compound 571], the EC50 was 65.3 nM.

`COc1ccc(-c2cc(C(C)O)ccc2F)cc1C(=O)N[C@@H]1C2CCC(/C2=C/C2CC2)[C@@H]1C(=O)Nc1ccc(F)c(C(F)(F)F)c1` (stereo partly shown) [compound 248]: the EC50 was 4 nM.

Staying with this test, now noted: cAMP hRXFP1 HEK293 Assay EC50, HEK293 cells stably expressing human RXFP1, 30 min at room temperature.
`COc1cc(F)c(F)cc1C(=O)N[C@@H]1[C@H](C(=O)Nc2ccc(F)c(C(F)(F)F)c2)[C@@H]2CC[C@H]1C2C(C)C` (stereo partly shown) [compound 975] showed an EC50 of 1000 nM.

For the compound `COc1ccc(-c2cc(C(=O)O)ccc2F)cc1C(=O)N[C@H]1[C@@H](C(=O)Nc2ccc(F)c(C(F)(F)F)c2)[C@H]2CC[C@@H]1/C2=C/c1ccccc1` [compound 91], a half-maximal response (EC50) required 360 nM.

Usually EC50 stands for the concentration at which the effect is half-maximal.
